This is an account of results in patent publication US8377942B2, “Isoxazolines derivatives and their use as pesticide” (Novartis AG, priority 2008, dated 2013).

Molecules are shown by their SMILES.

The subject of this assay is Rhipicephalus sanguineus nymphs. The assay can be described thus: Activity in vivo against Rhipicephalus sanguineus nymphs on Mongolian gerbils (spray application). Conditions: Dose 100 mg/kg, tick number reduction vs placebo (Abbot's formula), 7 days after infestation. The protocol:
3. Activity In Vivo Against Rhipicephalus sanguineus Nymphs on Mongolian Gerbils (Meriones unguiculatus) (Spray Application) On day 0, gerbils are treated with the test compound at a given dose by spray application. On day +1, the animals are infested with nymphs of R. sangineus. Ticks are left on the animals until full repletion. Seven days after infestation nymphs dropped off fully engorged are collected and counted. Efficacy in killing is expressed as a tick number reduction in comparison with a placebo treated group using the Abbot's formula.
For the compound `FC(F)(F)C1(c2cc(Cl)cc(Cl)c2)CC(c2ccc(-n3cncn3)c3ccccc23)=NO1` (stereo not drawn) [Compound 1.1, 1-{4-[5-(3,5-dichloro-phenyl)-5-trifluoromethyl-4,5-dihydro-isoxazol-3-yl]-naphthalen-1-yl}-1H-[1,2,4]triazole], the “Efficacy (%)” value came to 85%. For `FC(F)(F)C1(c2cc(Cl)cc(Cl)c2)CC(c2ccc(-c3cn(Cc4ccccn4)nn3)c3ccccc23)=NO1` (stereo not drawn) [Compound 1.27, 2-(4-{4-[5-(3,5-dichloro-phenyl)-5-trifluoromethyl-4,5-dihydro-isoxazol-3-yl]-naphthalen-1-yl}-[1,2,3]triazol-1-ylmethyl)-pyridine], the “Efficacy (%)” value is recorded as 79%. Turning to `O=C(NCc1cn(-c2ccc(C3=NOC(c4cc(Cl)cc(Cl)c4)(C(F)(F)F)C3)c3ccccc23)nn1)c1ccncc1` (stereo not drawn) [Compound 1.61, N-(1-{4-[5-(3,5-dichloro-phenyl)-5-trifluoromethyl-4,5-dihydro-isoxazol-3-yl]-naphthalen-1-yl}-1H-[1,2,3]triazol-4-ylmethyl)-isonicotinamide], the “Efficacy (%)” value stood at 96%.
